Experimental data from US20040198758A1, “N-heterocyclyl substituted thienyloxy-pyrimidines used as herbicides” (priority 2001, published 2004).

Columns and labels:
Assay in all cases: greenhouse post-emergence herbicidal treatment
Assay type in all cases: in vivo
Settings in all cases: application rates of 0.25 or 0.125 kg/ha
Chenopodium album = system: Chenopodium album
Excerpt: (§1) The seeds of the test plants were sown separately for each species. For the post-emergence treatment, the test plants were first grown to a height of from 3 to 15 cm, depending on the plant habit, and only then treated with the active compounds which had been suspended or emulsified in water. The test plants were for this purpose either sown directly and grown in the same containers., or they were first grown separately as seedlings and transplanted into the test containers a few days prior to treatment. The application rate for the post-emergence treatment was 0.25 or 0.125 kg of a.s. (active substance)/ha. Depending on the species, the plants were kept at 10-25° C. or 20-35° C. The test period extended over 2 to 4 weeks. During this time, the plants were tended, and their response to the individual treatments was evaluated. Evaluation was carried out using a scale from 0 to 100. 100 means no emergence of the plants, or complete destruction of at least the above-ground parts and 0 means no damage, or normal course of growth. The plants used in the greenhouse experiments were of the following species: [table]

Polygonum persicaria = system: Polygonum persicaria
Excerpt: as §1

Amaranthus retroflexus = system: Amaranthus retroflexus
Excerpt: as §1

Galium aparine = system: Galium aparine
Excerpt: as §1

Pharbitis purpurea = system: Pharbitis purpurea
Excerpt: as §1

Cc1cnc(-n2ccc(C(F)(F)F)n2)nc1Oc1csc(C(F)(F)F)c1 [I 1.1, 5-methyl-2-[3-(trifluoromethyl)-1H-pyrazol-1-yl]-4-{[5-(trifluoromethyl)-3-thienyl]oxy}pyrimidine]
very good: post-emergence action against Chenopodium album (Chenopodium album) | post-emergence action against Polygonum persicaria (Polygonum persicaria) | post-emergence action against Amaranthus retroflexus (Amaranthus retroflexus) | post-emergence action against Galium aparine (Galium aparine) | post-emergence action against Pharbitis purpurea (Pharbitis purpurea)
